{"source": "patent US11998549B2", "about": "“Methods of treating a vascular leakage-associated disease or disorder” (UNITY HEALTH TORONTO, priority 2019, dated 2024)", "key": {"[1]": {"tested_on": "LPS-induced tailfin edema", "assay": "Tailfin edema in LPS-treated zebrafish larvae", "format": "in vivo", "experimental": "(§1) An LPS induced zebrafish sepsis model which mimics the hallmarks of human sepsis was developed (Philip et al., 2017). Zebrafish show varied susceptibility and responsiveness to LPS from different bacterial strains. Exposure of zebrafish larvae at 3 days post-fertilization (dpf) to two types of LPS (LPS from Escherichia coli 0111:B4 (Sigma) at 100 μg/ml for 5-6 hrs; or LPS from Salmonella at 27 μg/ml for 24 hrs) were both effective in inducing tail fin swelling, increased ROS production, increased vascular leakage and increased mortality."}, "[2]": {"tested_on": "VE cadherin in HUVEC cells", "assay": "Immunostaining of VE cadherin in HUVEC cells", "format": "cell-based, human", "conditions": "LPS 1 μg/ml + UNC0642 2.5 nM, 24 hours", "experimental": "HUVEC cells were seeded onto Lab-Tek II Chamber slide system at 1×10^6 cells/ml and grown to confluency. At 80-95% confluency they were treated with either the vehicle, LPS (1 μg/ml), LPS (1 μg/ml)+UNC0642 (2.5 nM) or UNC0642 (2.5 nM) for 24 hours. Then the following steps for immunostaining were performed • 1. Fixed the cells in 4% formaldehyde in warm PBS for 20 minutes at room temperature • 2. Aspirated the fixative • 3. Washed 3 times in PBS, 5 minutes each • 4. Blocked in blocking buffer for 2 hours at room temperature • 5. Aspirated the blocking buffer • 6. Added primary antibody VE cadherin (monoclonal VE Cad; cell signalling 2500S) at a dilution of 1:200 and incubated overnight at 4° C. • 7. Washed 3 times in PBS, 10 minutes each • 8. Added secondary antibody (goat anti-rabbit IgG Alexa Fluor 568; 1:1000 and Alexa Fluor 488 phalloidin; 1:1,000) and incubated for 2 hours at room temperature. • 9. Washed the cells 3 times in PBS, 10 minutes each at room temperature and mounted with a cover slip in 4′,6-diamidino-2-phenylindole (DAPI) Vectashield.\nImages were taken with a Zeiss™ confocal microscope. […] (FIG. 10)"}, "[3]": {"tested_on": "LPS-induced ROS production", "assay": "ROS production (DCFH-DA) in LPS-treated zebrafish larvae", "format": "in vivo", "conditions": "LPS 100 μg/ml + 1 μM UNC0642, 5 h", "experimental": "ROS production was visualised using 2′, 7′-dichlorodihydrofluorescein diacetate (DCFH-DA; Sigma-Aldrich), a ROS indicator. Wildtype zebrafish were exposed to Vehicle, LPS (100 μg/ml) or LPS+1 μM UNC0642 by static immersion for 5 h at 28.5° C. and then incubated along with 100 μM DCFH-DA for 1 h at 28.5° C. in the dark, and washed three times (5 min each) with embryo water. DCFH-DA diffuses into cells and is deacetylated by cellular esterases to non-fluorescent 2′, 7′-Dichlorodihydrofluorescin (DCFH), which is rapidly oxidized to highly fluorescent 2′, 7′-Dichlorofluorescein (DCF) by ROS. The fluorescence intensity is propor-tional to the ROS levels within the cell cytosol. Photographs were acquired using a Leica DFC 300-FX camera and a Leica fluorescence microscope, and were processed with Fiji analysis software. Corrected total fluorescence (CTF) was calculated using the following formula: CTF=Integrated density−(Area of selected cell×Mean fluorescence of background readings) H3K9me2 Immunofluorescence Analysis"}, "H3K9me2 in HPMECs": {"tested_on": "H3K9me2 in HPMECs", "assay": "H3K9me2 Western blot in LPS-treated HPMECs", "format": "cell-based, human", "conditions": "LPS 1 ug/ml +/- UNC0642 2.5 nM, 24 hours"}, "[4]": {"tested_on": "LPS-induced vascular leakage", "assay": "Vascular leakage (leaked red blood cells in tailfin) in LPS-treated zebrafish larvae", "format": "in vivo", "experimental": "as §1\n3 dpf Tg (flk1:GFP; gata-1:Dsred) double transgenic larvae were exposed to Vehicle, LPS (100 μg/ml) or LPS+1 μM UNC0642 by static immersion for 6 h at 28.5° C. to induce endothe-lial dysfunction and the resulting leakage of red blood cells. The larvae were then imaged using a Leica fluorescence microscope (Leica Microsystems, Wetzlar, Germany). Red blood cells that leaked out into the tailfin region were quantified.\n3 dpf larvae were exposed to LPS by immersion technique. […] Control larvae were exposed to egg water. Survival numbers were recorded and EC50s calculated. The percentage (%) of embryos showing vascular leakage was also recorded and 1050s calculated."}, "CLP-induced mortality": {"tested_on": "CLP-induced mortality", "assay": "Mouse cecal ligation and puncture (CLP) model of sepsis, survival", "format": "in vivo", "conditions": "intravenous infusion of 1 mg/kg", "experimental": "(§2) The CLP model is a well established clinically relevant model for human sepsis (Smeding et al., 2012; Amatullah et al., 2016). Male 8-12 week old C57/B16 mice (Jackson lab) were randomized to CLP or sham surgeries. In anesthetised mice, the cecum was exteriorized, ligated, and perforated. Control animals were exposed to sham surgery, in which the cecum was manipulated, but not ligated or punctured. After surgery, animals received daily fluid resuscitation (subcutaneous (s.c.) 50 ml/kg saline), antibiotic (intraperitoneal (i.p.) imipenem 25 mg/kg) and pain management (s.c. buprenorphine 0.2 mg/kg). Experiments were divided into 2 groups: (1) to assess 7-day survival, and (2) to identify a mechanism of action of a G9a inhibitor in vivo. All experimental mice were randomized and investigators were blinded to group assignment."}, "[5]": {"tested_on": "CLP-induced protein exudation into the alveolar space", "assay": "Mouse CLP model, protein leakage into BALF", "format": "in vivo", "conditions": "intravenous infusion of 1 mg/kg", "experimental": "as §2\nAssessment of protective effects of UNC0642 on sepsis-induced vascular leakage: lung injury score and loss of alveolar-capillary membrane integrity with increased albumin and IgM exudation into bronchoalveolar lavage fluid (BALF) was assessed at 24 hrs post treatment."}}, "note": "“Also recorded” adds a separate entry of the source.", "data": [{"compound": "COc1cc2c(NC3CCN(C(C)C)CC3)nc(N3CCC(F)(F)CC3)nc2cc1OCCCN1CCCC1", "note": "[UNC0642, 2-(4,4-Difluoropiperidin-1-yl)-6-methoxy-N-[1-(propan-2-yl)piperidin-4-yl]-7-(3-(pyrrolidin-1-yl)propoxy]quinazolin-4-amine]", "values": [{"measurement": "LPS-induced tailfin edema", "setting": "[1]", "value": "significantly reduced"}, {"measurement": "LPS-caused decrease in level and patterning of VE cadherin", "setting": "[2]", "value": "partially rescued"}, {"measurement": "Reduction of LPS-induced ROS production", "setting": "[3]", "value": 40, "unit": "%"}, {"measurement": "H3K9me2 by Western Blot", "setting": "H3K9me2 in HPMECs", "value": "decreased H3K9me2; also recorded: reduction in this H3K9me2"}, {"measurement": "LPS-induced vascular leakage", "setting": "[4]; 3 dpf larvae, LPS 100 μg/ml + 1 μM UNC0642, 6 h, leaked red blood cells at tail fin", "value": "significantly reduced"}, {"measurement": "Rescue of sepsis-associated vascular leakage", "setting": "[4]; comparison of UNC0642 and A366, zebrafish larvae, 27 μg/ml LPS, 24 h", "value": "able to rescue"}, {"measurement": "Reduction of CLP-induced absolute mortality", "setting": "CLP-induced mortality", "value": "~50", "unit": "%"}, {"measurement": "Protein exudation into the alveolar space (total alveolar protein in the BALF)", "setting": "[5]", "value": "reduced protein exudation"}]}]}
